Source: patent US9156845B2, “4-(substituted amino)-7H-pyrrolo[2,3-d] pyrimidines as LRRK2 inhibitors” (Pfizer Inc., priority 2012, dated 2015)

What was measured:
[1] = molecular target: GST-tagged truncated LRRK2 (Homo sapiens (Human), UniProt Q5S007); assay: LRRK2 Lantha Screen kinase assay; format: biochemical; conditions: geometric mean of 2-5 determinations unless otherwise indicated (a: >=6 determinations; b: single determination); read-out: LRRK2 WT IC50
CaMK2d = CaMK2d (Homo sapiens (Human), UniProt Q13557); assay: ActivX kinase probe assay (human PBMC); format: binding; conditions: read-out: percent inhibition
CaMK2g = CaMK2g (Homo sapiens (Human), UniProt Q13555); assay: ActivX kinase probe assay (human PBMC); format: binding; conditions: read-out: percent inhibition
CDC2 = CDC2 (Homo sapiens (Human), UniProt P06493); assay: ActivX kinase probe assay (human PBMC); format: binding; conditions: read-out: percent inhibition
CDK2 = CDK2 (Homo sapiens (Human), UniProt P24941); assay: ActivX kinase probe assay (human PBMC); format: binding; conditions: read-out: percent inhibition
DGKA = DGKA (Homo sapiens (Human), UniProt P23743); assay: ActivX kinase probe assay (human PBMC); format: binding; conditions: read-out: percent inhibition
FES = FES (Homo sapiens (Human), UniProt P07332); assay: ActivX kinase probe assay (human PBMC); format: binding; conditions: read-out: percent inhibition
GCN2 = GCN2 (Homo sapiens (Human), UniProt Q9P2K8); assay: ActivX kinase probe assay (human PBMC); format: binding; conditions: read-out: percent inhibition
IRAK1 = IRAK1 (Homo sapiens (Human), UniProt P51617); assay: ActivX kinase probe assay (human PBMC); format: binding; conditions: read-out: percent inhibition
KHS1 = KHS1 (Homo sapiens (Human), UniProt Q9Y4K4); assay: ActivX kinase probe assay (human PBMC); format: binding; conditions: read-out: percent inhibition
LRRK2 = LRRK2 (Homo sapiens (Human), UniProt Q5S007); assay: ActivX kinase probe assay (human PBMC); format: binding; conditions: read-out: percent inhibition
MAP2K1, MAP2K2 = assay: ActivX kinase probe assay (human PBMC); format: binding
MAP3K3 = MAP3K3 (Homo sapiens (Human), UniProt Q99759); assay: ActivX kinase probe assay (human PBMC); format: binding; conditions: read-out: percent inhibition
MAST3 = MAST3 (Homo sapiens (Human), UniProt O60307); assay: ActivX kinase probe assay (human PBMC); format: binding; conditions: read-out: percent inhibition
MSK1 domain1 = MSK1 domain1 (Homo sapiens (Human), UniProt O75582); assay: ActivX kinase probe assay (human PBMC); format: binding; conditions: read-out: percent inhibition
NDR2 = NDR2 (Homo sapiens (Human), UniProt Q9Y2H1); assay: ActivX kinase probe assay (human PBMC); format: binding; conditions: read-out: percent inhibition
p70S6Kb = p70S6Kb (Homo sapiens (Human), UniProt Q9UBS0); assay: ActivX kinase probe assay (human PBMC); format: binding; conditions: read-out: percent inhibition
PIK3CG = PIK3CG (Homo sapiens (Human), UniProt P48736); assay: ActivX kinase probe assay (human PBMC); format: binding; conditions: read-out: percent inhibition
PIP4K2A = PIP4K2A (Homo sapiens (Human), UniProt P48426); assay: ActivX kinase probe assay (human PBMC); format: binding; conditions: read-out: percent inhibition
PKD2 = PKD2 (Homo sapiens (Human), UniProt Q9BZL6); assay: ActivX kinase probe assay (human PBMC); format: binding; conditions: read-out: percent inhibition
PRPK = PRPK (Homo sapiens (Human), UniProt Q96S44); assay: ActivX kinase probe assay (human PBMC); format: binding; conditions: read-out: percent inhibition
Description: Certain of the compounds of the present invention were assessed for kinase selectivity using a commercially available ActiveX targeted kinase probe in which the tissue employed was human peripheral blood mononuclear cells (PBMC). The test compounds were provided to ActivX Biosciences, Inc., 11025 North Torrey Pines Road, Suite 120; LaJolla, Calif., USA 92037. The compounds were run in the ActivX proprietary kinase assay and results were obtained at compound test concentrations of 1 μM (columns 2, 4 and 6) and 0.1 μM (columns 3, 5 and 7). The results as percent inhibition obtained for the compounds of Examples 1, 4 and 217 are provided below in Table 3.

RSK1 domain2 = RSK1 domain2 (Homo sapiens (Human), UniProt Q15418); assay: ActivX kinase probe assay (human PBMC); format: binding; conditions: read-out: percent inhibition
RSK1, RSK2, RSK3 domain1 = assay: ActivX kinase probe assay (human PBMC); format: binding
RSK2 domain1 = RSK2 domain1 (Homo sapiens (Human), UniProt P51812); assay: ActivX kinase probe assay (human PBMC); format: binding; conditions: read-out: percent inhibition
SGK3 = SGK3 (Homo sapiens (Human), UniProt Q96BR1); assay: ActivX kinase probe assay (human PBMC); format: binding; conditions: read-out: percent inhibition
SMG1 = SMG1 (Homo sapiens (Human), UniProt Q96Q15); assay: ActivX kinase probe assay (human PBMC); format: binding; conditions: read-out: percent inhibition
SYK = SYK (Homo sapiens (Human), UniProt P43405); assay: ActivX kinase probe assay (human PBMC); format: binding; conditions: read-out: percent inhibition
ULK3 = ULK3 (Homo sapiens (Human), UniProt Q6PHR2); assay: ActivX kinase probe assay (human PBMC); format: binding; conditions: read-out: percent inhibition
ZAK = ZAK (Homo sapiens (Human), UniProt Q9NYL2); assay: ActivX kinase probe assay (human PBMC); format: binding; conditions: read-out: percent inhibition
[2] = tested on: ZC1/HGK, ZC2/TNIK, ZC3/MINK; assay: ActivX kinase probe assay (human PBMC); format: binding
ZC2/TNIK = ZC2/TNIK (Homo sapiens (Human), UniProt Q9UKE5); assay: ActivX kinase probe assay (human PBMC); format: binding; conditions: read-out: percent inhibition

Chain of KHS1 (Q9Y4K4 whole entry): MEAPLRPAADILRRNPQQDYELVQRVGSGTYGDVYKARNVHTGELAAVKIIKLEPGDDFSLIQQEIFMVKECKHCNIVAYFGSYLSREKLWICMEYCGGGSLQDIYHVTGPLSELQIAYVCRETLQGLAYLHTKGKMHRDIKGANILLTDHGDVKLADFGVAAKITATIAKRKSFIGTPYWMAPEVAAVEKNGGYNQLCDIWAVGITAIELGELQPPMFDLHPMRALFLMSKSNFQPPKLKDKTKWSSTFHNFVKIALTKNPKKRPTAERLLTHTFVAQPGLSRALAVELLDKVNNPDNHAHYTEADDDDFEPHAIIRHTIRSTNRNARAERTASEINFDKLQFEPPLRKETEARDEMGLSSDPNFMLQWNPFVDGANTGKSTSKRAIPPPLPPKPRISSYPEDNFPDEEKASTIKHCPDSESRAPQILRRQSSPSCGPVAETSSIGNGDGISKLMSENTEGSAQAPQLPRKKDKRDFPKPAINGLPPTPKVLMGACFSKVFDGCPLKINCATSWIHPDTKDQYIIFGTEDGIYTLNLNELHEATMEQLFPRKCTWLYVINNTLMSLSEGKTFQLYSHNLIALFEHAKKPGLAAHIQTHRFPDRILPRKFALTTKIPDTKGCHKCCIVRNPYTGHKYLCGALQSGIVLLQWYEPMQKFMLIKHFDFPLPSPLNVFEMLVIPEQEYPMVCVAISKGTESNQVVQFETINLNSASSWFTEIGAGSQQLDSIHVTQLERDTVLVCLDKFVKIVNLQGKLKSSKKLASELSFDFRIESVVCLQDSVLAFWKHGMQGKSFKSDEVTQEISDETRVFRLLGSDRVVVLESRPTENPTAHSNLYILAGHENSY
Chain of SGK3 (Q96BR1 whole entry): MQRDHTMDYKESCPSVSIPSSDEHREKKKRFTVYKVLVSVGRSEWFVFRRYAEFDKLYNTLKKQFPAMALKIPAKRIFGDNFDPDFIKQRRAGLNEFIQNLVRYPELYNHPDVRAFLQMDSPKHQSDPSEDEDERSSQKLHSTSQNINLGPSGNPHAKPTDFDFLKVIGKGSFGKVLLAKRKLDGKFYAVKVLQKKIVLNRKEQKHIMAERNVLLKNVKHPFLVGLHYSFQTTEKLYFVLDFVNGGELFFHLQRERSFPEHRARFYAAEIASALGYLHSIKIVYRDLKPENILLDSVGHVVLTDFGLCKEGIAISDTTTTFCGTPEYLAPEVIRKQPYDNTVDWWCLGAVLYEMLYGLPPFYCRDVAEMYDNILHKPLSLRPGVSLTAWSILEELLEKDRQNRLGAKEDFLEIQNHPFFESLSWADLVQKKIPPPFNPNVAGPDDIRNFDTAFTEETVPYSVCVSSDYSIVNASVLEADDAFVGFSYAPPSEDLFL
Chain of PIP4K2A (P48426 whole entry): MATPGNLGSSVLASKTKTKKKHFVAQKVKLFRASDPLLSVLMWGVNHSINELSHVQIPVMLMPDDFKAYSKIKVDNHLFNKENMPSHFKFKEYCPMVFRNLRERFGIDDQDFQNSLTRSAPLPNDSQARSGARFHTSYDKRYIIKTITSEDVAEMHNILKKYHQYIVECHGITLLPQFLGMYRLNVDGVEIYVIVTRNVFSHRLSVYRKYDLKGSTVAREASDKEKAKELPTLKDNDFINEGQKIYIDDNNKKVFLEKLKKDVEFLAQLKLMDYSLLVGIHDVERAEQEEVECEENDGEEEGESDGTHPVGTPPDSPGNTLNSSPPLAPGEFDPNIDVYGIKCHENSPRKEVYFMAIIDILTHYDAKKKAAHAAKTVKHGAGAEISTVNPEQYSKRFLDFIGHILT
Chain of MAST3 (O60307 whole entry, the tested form may be a part): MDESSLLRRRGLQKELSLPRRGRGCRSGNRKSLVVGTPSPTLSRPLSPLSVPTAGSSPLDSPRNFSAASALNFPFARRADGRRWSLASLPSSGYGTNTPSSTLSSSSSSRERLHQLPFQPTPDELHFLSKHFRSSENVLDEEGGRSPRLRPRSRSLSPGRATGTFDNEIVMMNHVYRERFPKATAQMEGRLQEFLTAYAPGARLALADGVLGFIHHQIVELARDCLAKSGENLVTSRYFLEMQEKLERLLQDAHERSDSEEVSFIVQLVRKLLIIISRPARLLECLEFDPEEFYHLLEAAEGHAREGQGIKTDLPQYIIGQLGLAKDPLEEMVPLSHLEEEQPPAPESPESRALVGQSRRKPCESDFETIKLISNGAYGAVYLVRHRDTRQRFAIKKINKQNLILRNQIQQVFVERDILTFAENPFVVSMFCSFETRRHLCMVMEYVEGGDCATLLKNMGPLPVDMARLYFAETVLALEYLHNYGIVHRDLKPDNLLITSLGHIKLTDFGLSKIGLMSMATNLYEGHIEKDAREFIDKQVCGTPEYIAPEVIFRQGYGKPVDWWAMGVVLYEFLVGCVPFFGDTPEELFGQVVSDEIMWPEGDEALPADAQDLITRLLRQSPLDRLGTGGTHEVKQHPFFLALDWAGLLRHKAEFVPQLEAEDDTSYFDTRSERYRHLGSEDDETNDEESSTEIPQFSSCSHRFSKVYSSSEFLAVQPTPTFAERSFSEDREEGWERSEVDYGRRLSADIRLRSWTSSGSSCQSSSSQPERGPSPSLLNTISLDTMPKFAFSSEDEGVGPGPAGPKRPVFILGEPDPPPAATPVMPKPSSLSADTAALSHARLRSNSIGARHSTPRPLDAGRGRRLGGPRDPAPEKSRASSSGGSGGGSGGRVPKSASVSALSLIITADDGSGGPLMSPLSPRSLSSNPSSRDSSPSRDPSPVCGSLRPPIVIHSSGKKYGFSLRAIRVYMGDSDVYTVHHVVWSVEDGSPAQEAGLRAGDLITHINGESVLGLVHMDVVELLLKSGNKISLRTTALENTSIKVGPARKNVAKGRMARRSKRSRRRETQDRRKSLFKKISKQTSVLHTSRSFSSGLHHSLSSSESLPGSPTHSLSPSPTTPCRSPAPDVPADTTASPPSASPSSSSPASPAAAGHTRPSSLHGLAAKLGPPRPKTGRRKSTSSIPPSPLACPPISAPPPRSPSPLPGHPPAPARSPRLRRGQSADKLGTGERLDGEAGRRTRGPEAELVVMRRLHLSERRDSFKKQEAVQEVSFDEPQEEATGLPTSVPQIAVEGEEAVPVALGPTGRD
Chain of GCN2 (Q9P2K8 whole entry): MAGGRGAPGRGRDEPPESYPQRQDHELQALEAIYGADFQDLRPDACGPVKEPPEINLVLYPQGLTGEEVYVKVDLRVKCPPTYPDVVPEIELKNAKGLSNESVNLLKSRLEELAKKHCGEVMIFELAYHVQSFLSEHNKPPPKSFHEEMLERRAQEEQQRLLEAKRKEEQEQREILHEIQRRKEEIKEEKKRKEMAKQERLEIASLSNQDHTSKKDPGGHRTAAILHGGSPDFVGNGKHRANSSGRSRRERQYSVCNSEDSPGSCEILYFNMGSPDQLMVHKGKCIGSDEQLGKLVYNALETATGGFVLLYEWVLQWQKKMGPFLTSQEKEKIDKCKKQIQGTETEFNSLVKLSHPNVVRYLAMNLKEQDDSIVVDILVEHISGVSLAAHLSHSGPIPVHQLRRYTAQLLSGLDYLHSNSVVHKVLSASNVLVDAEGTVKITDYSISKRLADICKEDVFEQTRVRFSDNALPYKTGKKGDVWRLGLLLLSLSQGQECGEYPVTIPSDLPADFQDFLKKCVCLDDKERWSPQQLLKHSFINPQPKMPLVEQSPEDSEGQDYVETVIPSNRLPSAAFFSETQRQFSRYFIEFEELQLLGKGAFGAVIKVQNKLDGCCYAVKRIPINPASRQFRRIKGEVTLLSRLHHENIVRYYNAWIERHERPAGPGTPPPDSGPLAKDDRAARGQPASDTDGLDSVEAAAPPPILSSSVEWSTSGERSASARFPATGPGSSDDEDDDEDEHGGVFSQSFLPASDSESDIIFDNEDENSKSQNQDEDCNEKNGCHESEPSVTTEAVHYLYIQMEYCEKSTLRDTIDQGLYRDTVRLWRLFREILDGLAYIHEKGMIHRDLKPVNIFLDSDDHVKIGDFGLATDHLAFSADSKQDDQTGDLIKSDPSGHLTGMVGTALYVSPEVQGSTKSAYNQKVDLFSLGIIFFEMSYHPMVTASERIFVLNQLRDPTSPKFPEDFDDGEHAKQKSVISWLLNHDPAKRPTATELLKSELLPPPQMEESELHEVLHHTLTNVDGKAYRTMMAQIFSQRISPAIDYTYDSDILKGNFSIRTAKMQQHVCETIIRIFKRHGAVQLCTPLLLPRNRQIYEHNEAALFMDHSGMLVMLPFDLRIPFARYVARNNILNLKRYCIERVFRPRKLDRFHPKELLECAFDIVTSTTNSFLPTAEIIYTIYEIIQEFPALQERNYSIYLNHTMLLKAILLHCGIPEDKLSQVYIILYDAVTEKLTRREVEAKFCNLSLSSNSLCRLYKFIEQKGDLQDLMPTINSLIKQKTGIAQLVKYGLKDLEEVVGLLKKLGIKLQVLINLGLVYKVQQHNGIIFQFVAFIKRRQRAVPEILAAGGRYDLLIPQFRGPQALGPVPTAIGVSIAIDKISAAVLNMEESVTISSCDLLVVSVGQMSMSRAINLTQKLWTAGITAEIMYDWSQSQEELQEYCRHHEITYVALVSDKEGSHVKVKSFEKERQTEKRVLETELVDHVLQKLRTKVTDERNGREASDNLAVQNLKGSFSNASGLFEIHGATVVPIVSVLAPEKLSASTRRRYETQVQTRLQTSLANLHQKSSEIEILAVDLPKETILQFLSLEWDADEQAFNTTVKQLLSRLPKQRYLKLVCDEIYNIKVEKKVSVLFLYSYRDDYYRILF
Chain of CDC2 (P06493 whole entry): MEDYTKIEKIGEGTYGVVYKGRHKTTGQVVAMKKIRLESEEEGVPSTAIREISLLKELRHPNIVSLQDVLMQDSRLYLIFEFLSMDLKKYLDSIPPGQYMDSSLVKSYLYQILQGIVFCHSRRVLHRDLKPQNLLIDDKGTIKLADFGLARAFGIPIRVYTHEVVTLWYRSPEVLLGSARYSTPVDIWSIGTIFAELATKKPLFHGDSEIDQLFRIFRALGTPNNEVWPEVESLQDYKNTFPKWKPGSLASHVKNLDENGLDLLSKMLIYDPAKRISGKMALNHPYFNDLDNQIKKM

Q: Which results are given for N#Cc1cccc(-c2c[nH]c3ncnc(N4CCOCC4)c23)c1 [Example 4, 3-[4-(Morpholin-4-yl)-7H-pyrrolo[2,3-d]pyrimidin-5-yl]benzonitrile]?
A: IC50 [1]: 3 nM; inhibition at 0.1 µM (CaMK2d): -0.4%; inhibition at 1 µM (CaMK2d): 10.8%; inhibition at 0.1 µM (CaMK2g): -13.6%; inhibition at 1 µM (CaMK2g): 2.9%; inhibition at 0.1 µM (CDC2): -6.7%; inhibition at 1 µM (CDC2): 12.9%; inhibition at 0.1 µM (CDK2): 11%; inhibition at 1 µM (CDK2): 9.2%; inhibition at 0.1 µM (DGKA): -15.9%; inhibition at 1 µM (DGKA): -8.7%; inhibition at 0.1 µM (FES): -9.2%; inhibition at 1 µM (FES): 6.9%; inhibition at 0.1 µM (GCN2): -13.6%; inhibition at 1 µM (GCN2): 0.6%; inhibition at 0.1 µM (IRAK1): -2.9%; inhibition at 1 µM (IRAK1): 2.1%; inhibition at 0.1 µM (KHS1): -25.9%; inhibition at 1 µM (KHS1): 12.9%; inhibition at 0.1 µM (LRRK2; 0.1 μM): 79.9%; inhibition at 1 µM (LRRK2; 1 μM): 94.1%; percent inhibition (MAP2K1, MAP2K2; 0.1 μM): −7.1%; percent inhibition (MAP2K1, MAP2K2; 1 μM): 6.4%; inhibition at 0.1 µM (MAP3K3): -0.5%; inhibition at 1 µM (MAP3K3): 7.4%; inhibition at 0.1 µM (MAST3): 2.6%; inhibition at 1 µM (MAST3): 0.8%; inhibition at 0.1 µM (MSK1 domain1): 1%; inhibition at 1 µM (MSK1 domain1): -3.8%; inhibition at 0.1 µM (NDR2): -18.7%; inhibition at 1 µM (NDR2): 22.1%; inhibition at 0.1 µM (p70S6Kb): 11.4%; inhibition at 1 µM (p70S6Kb): 18.5%; inhibition at 0.1 µM (PIK3CG): -20.4%; inhibition at 1 µM (PIK3CG): -5.6%; inhibition at 0.1 µM (PIP4K2A): -12.1%; inhibition at 1 µM (PIP4K2A): 1.9%; inhibition at 0.1 µM (PKD2): 0.7%; inhibition at 1 µM (PKD2): 9.4%; inhibition at 0.1 µM (PRPK; 0.1 μM): 3%; inhibition at 1 µM (PRPK; 1 μM): -3.7%; inhibition at 0.1 µM (RSK1 domain2): 2.7%; inhibition at 1 µM (RSK1 domain2): 55.8%; percent inhibition (RSK1, RSK2, RSK3 domain1; 0.1 μM): −0.4%; percent inhibition (RSK1, RSK2, RSK3 domain1; 1 μM): 13.4%; inhibition at 0.1 µM (RSK2 domain1): -6%; inhibition at 1 µM (RSK2 domain1): -11.2%; inhibition at 0.1 µM (SGK3): -5.5%; inhibition at 1 µM (SGK3): -0.8%; inhibition at 0.1 µM (SMG1): -2.5%; inhibition at 1 µM (SMG1): 13%; inhibition at 0.1 µM (SYK): -8.3%; inhibition at 1 µM (SYK): 7.2%; inhibition at 0.1 µM (ULK3): 3.1%; inhibition at 1 µM (ULK3): 5.2%; inhibition at 0.1 µM (ZAK): -20.5%; inhibition at 1 µM (ZAK): -42.2%; percent inhibition ([2]; 0.1 μM): −3.2%; percent inhibition ([2]; 1 μM): 14.8%; inhibition at 0.1 µM (ZC2/TNIK): -7.9%; inhibition at 1 µM (ZC2/TNIK): 29.2%
